Reference: ChEMBL document CHEMBL5321229, “Conformationally locked sugar derivatives and analogues as potential neuraminidase inhibitors” (Eur J Med Chem, 2023)

Assays:
[1] = target: Neuraminidase (Influenza A virus, UniProt B4URF0); assay: Inhibition of influenza A virus neuraminidase
[2] = tested on: Influenza A virus; assay: Antiviral activity against oseltamivir sensitive wild type Influenza A virus A/Brisbane/59/2007 infected infected in dog MDCK cells assessed as inhibition of viral growth incubated for 4 days by neutral red dye-based assay; assay type: functional; conditions: A/Brisbane/59/2007, MDCK, 96 h, time 4 day, read-out: ED50 (the source's name)
[3] = Inhibition of influenza A virus A/Singapore/157 neuraminidase using 2'-(4-methylumbelliferyl)-alpha-D-acetylneuraminic acid as substrate incubated for 10 to 30 mins by fluorescence-based assay
[4] = Inhibition of influenza B virus B/Victoria/70 neuraminidase using 2'-(4-methylumbelliferyl)-alpha-D-acetylneuraminic acid as substrate incubated for 10 to 30 mins by fluorescence-based assay
[5] = Inhibition of Newcastle disease virus neuraminidase using 4-MUNeu5Ac as substrate assessed as reduction in neuraminidase activity incubated for 15 mins by spectrofluorometric analysis
[6] = Inhibition of influenza A virus A/Anhui/1/2005 H5N1 using MUNANA as substrate preincubated for 45 mins followed by substrate addition by fluorescence based assay
[7] = target: Neuraminidase (Influenza A virus (A/Puerto Rico/8/1934(H1N1)), UniProt P03468); assay: Binding affinity to influenza A virus H1N1 (A/Norway/1758/07) neuraminidase using MUNANA as substrate assessed as inhibition constant
[8] = Inhibition of hPIV-3 Haemagglutinin-neuraminidase infected in human red blood cells incubated for 90 mins by haemagglutination assay; assay type: cell-based, RBC; conditions: Human respirovirus 3, Erythrocyte, 1.5 h
[9] = Inhibition of influenza A virus H5N1 (A/Anhui/2005) neuraminidase using fluorogenic MUNANA as substrate
[10] = tested on: Influenza A virus; assay: Antiviral activity against Influenza A virus; assay type: functional, organism-based
[11] = tested on: Influenza B virus; assay: Antiviral activity against Influenza B virus; assay type: functional, organism-based
[12] = Inhibition of influenza A virus H12N5 A/Duck/Alberta/60/1976 neuraminidase using MUNANA as substrate incubated for 30 mins followed by substrate addition by fluorescence based assay
[13] = target: Neuraminidase (Influenza A virus (A/Memphis/1/1971(H3N2)), UniProt P03471); assay: Inhibition of influenza A virus H3N2 (A/Moscow/10/99) neuraminidase using MUNANA as substrate preincubated for 30 mins followed by substrate addition by fluorescence-based assay
[14] = Binding affinity to influenza A virus A/HongKong/156/97 (H5N1) neuraminidase using fluorogenic MUN as substrate assessed as inhibition constant
[15] = Inhibition of Influenza A virus H7N9 VLP neuraminidase using MUNANA as substrate
[16] = tested on: Influenza A virus; assay: Antiviral activity against influenza A virus A/Hong Kong/1/68 (HK1, H3N2) infected in dog MDCK cells assessed as cytopathic effect; assay type: functional, organism-based

Chain of Neuraminidase (B4URF0 whole entry): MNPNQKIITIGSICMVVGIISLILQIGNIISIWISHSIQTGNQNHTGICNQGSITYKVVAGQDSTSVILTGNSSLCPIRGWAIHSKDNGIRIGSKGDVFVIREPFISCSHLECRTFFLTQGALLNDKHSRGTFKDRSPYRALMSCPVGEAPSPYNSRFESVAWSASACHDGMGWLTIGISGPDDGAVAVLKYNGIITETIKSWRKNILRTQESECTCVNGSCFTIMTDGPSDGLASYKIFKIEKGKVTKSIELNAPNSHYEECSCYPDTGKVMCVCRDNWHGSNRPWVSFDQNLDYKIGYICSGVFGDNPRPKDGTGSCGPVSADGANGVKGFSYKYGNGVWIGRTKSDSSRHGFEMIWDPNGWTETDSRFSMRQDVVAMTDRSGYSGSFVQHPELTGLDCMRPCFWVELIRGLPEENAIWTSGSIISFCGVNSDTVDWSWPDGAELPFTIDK
Chain of Neuraminidase (Influenza A virus (A/Puerto Rico/8/1934(H1N1)), UniProt P03468) (P03468 whole entry): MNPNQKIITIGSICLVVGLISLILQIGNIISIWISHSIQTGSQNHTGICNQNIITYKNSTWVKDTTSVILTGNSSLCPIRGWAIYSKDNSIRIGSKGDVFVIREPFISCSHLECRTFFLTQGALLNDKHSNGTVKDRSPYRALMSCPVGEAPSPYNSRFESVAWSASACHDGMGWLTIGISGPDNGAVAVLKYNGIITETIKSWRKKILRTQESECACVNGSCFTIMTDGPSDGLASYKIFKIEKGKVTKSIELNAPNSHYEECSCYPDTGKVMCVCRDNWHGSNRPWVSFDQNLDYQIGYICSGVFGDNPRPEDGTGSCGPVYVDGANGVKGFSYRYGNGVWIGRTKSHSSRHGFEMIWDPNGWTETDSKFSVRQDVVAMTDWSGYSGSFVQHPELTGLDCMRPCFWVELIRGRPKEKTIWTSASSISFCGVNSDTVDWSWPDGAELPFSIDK
Chain of Neuraminidase (Influenza A virus (A/Memphis/1/1971(H3N2)), UniProt P03471) (P03471 whole entry): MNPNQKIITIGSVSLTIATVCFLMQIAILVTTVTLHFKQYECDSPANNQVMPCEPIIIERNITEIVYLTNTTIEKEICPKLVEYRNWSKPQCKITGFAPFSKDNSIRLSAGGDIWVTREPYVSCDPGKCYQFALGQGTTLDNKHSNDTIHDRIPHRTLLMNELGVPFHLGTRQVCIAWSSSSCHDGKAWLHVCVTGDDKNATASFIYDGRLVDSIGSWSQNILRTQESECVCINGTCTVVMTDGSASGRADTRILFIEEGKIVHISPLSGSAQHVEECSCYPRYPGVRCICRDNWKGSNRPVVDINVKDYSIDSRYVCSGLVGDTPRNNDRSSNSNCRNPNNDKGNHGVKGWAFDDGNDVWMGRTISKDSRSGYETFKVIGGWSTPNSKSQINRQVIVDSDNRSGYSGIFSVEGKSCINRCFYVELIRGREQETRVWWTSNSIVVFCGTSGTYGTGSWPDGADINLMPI

Work on `CCO[C@@H]([C@@H]1OC(C(=O)O)=C[C@H](N=C(N)N)[C@H]1NC(C)=O)[C@H](O)CO` yielded an IC50 [1] of 0.0733 µM.
In the case of `CCCCCCCCO[C@@H]([C@@H]1OC(C(=O)O)=C[C@H](N=C(N)N)[C@H]1NC(C)=O)[C@H](O)CO`, the IC50 [1] is reported as 0.0455 µM.
For `CCCCCO[C@@H]([C@@H]1OC(C(=O)O)=C[C@H](N=C(N)N)[C@H]1NC(C)=O)[C@H](O)CO`, the IC50 [1] was 0.0356 µM.
`CCCCCCCCCCCCO[C@@H]([C@@H]1OC(C(=O)O)=C[C@H](N=C(N)N)[C@H]1NC(C)=O)[C@H](O)CO` gave an IC50 [1] of 0.0992 µM.
In the case of `CCCO[C@@H]([C@@H]1OC(C(=O)O)=C[C@H](N=C(N)N)[C@H]1NC(C)=O)[C@H](O)CO`, the IC50 [1] is reported as 0.0818 µM.
`CCC(CC)O[C@@H]1CC(C(=O)O)=C[C@H](N)[C@H]1NC(C)=O` gave an EC50 [2] of 12 µM.
Work on `CCC(CC)O[C@@H]1CC(C(=O)O)=C[C@H](NC(=N)N)[C@H]1NC(C)=O` yielded an EC50 [2] of 3.9 µM.
For `CCC(CC)[C@H](NC(C)=O)[C@@H]1C[C@@H](C(=O)O)C[C@H]1N=C(N)N`, the IC50 [3] was < 0.01 µM and the IC50 [4] was < 0.01 µM.
In the case of `CO[C@@H]([C@@H]1OC(C(=O)O)=C[C@H](NC(=N)N)[C@H]1NC(C)=O)[C@H](O)CO`, the IC50 [1] is reported as 0.0176 µM.
`O=C(O)C1=C[C@H](NC(=O)C(F)(F)F)[C@H](NC(=O)C(F)(F)F)[C@H]([C@@H](O)[C@H](O)CO)O1` gave an IC50 [5] of 0.03 µM.
In the case of `CCC(CC)O[C@@H]1C2C([C@@H]2C(=O)O)[C@@H](NCc2ccccc2)[C@H]1NC(C)=O` (stereo partly specified), the IC50 [6] is reported as 10 µM.
`CCC(CC)O[C@@H]1C=C(P(=O)(O)O[C@H]2[C@@H](O)[C@@H](CO)O[C@@H](OC)[C@@H]2O)C[C@H](N)[C@H]1NC(C)=O` showed a Ki [7] of 0.00029 µM.
`CC(C)C(=O)N[C@H]1[C@H]([C@H](O)[C@H](O)CO)OC(C(=O)O)=C(n2cc(-c3ccccc3C(=O)O)nn2)[C@@H]1O` showed an IC50 [8] of 3.9 µM.
For `CCC(CC)O[C@@H]1C=C(C(=O)O)C[C@H](NS(C)(=O)=O)[C@H]1NC(C)=O`, the IC50 [9] was 3.5 µM.
Molecule `CNC(=N)N[C@H]1C=C(C(=O)O)O[C@@H]([C@H](O)[C@H](O)CO)[C@@H]1NC(C)=O` has an IC50 [10] of 4.59 µM and an IC50 [11] of 4.59 µM.
Work on `CCC(CC)O[C@@H]1C=C(C(=O)O)C[C@H](n2nncc2-c2cccc(N)c2)[C@H]1NC(C)=O` yielded an IC50 [12] of 0.045 µM and an IC50 [13] of 0.019 µM.
With `CC(=O)N[C@H]1[C@H]([C@H](O)[C@H](O)CO)OC(C(=O)O)=C(C/C=C/c2cccc3ccccc23)[C@@H]1O` the Ki [14] was 9.3 µM.
`N=C(N)N[C@@H]1[C@@H](NC(=O)C(F)(F)F)[C@H]([C@H](OC(=O)NCCn2cc(COC[C@H]3O[C@@H](O[C@H]4[C@H](OCc5cn(CCNC(=O)O[C@@H]([C@@H]6O[C@@](F)(C(=O)O)[C@H](F)[C@H](NC(=N)N)[C@H]6NC(=O)C(F)(F)F)[C@H](O)CO)nn5)[C@@H](OCc5cnnn5CCNC(=O)O[C@@H]([C@@H]5O[C@@](F)(C(=O)O)[C@H](F)[C@H](NC(=N)N)[C@H]5NC(=O)C(F)(F)F)[C@H](O)CO)[C@H](OCc5cn(CCNC(=O)O[C@@H]([C@@H]6O[C@@](F)(C(=O)O)[C@H](F)[C@H](NC(=N)N)[C@H]6NC(=O)C(F)(F)F)[C@H](O)CO)nn5)O[C@@H]4COCc4cn(CCNC(=O)O[C@@H]([C@@H]5O[C@@](F)(C(=O)O)[C@H](F)[C@H](NC(=N)N)[C@H]5NC(=O)C(F)(F)F)[C@H](O)CO)nn4)[C@H](OCc4cn(CCNC(=O)O[C@@H]([C@@H]5O[C@@](F)(C(=O)O)[C@H](F)[C@H](NC(=N)N)[C@H]5NC(=O)C(F)(F)F)[C@H](O)CO)nn4)[C@@H](OCc4cn(CCNC(=O)O[C@@H]([C@@H]5O[C@@](F)(C(=O)O)[C@H](F)[C@H](NC(=N)N)[C@H]5NC(=O)C(F)(F)F)[C@H](O)CO)nn4)[C@H]3OCc3cn(CCNC(=O)O[C@@H]([C@@H]4O[C@@](F)(C(=O)O)[C@H](F)[C@H](NC(=N)N)[C@H]4NC(=O)C(F)(F)F)[C@H](O)CO)nn3)nn2)[C@H](O)CO)O[C@@](F)(C(=O)O)[C@@H]1F` gave an IC50 [15] of 0.0306 µM.
In the case of `CCC(CC)O[C@@H]1C2C([C@@H]2C(=O)O)[C@@H](NCc2ccc(-c3ccccc3)cc2)[C@H]1NC(C)=O` (stereo partly specified), the IC50 [6] is reported as 10 µM.
With `CCOC(=O)NC(=N)N[C@H]1C=C(C(=O)O)O[C@@H]([C@H](O)[C@H](O)CO)[C@@H]1NC(C)=O` the IC50 [10] was 4.59 µM and the IC50 [11] was 4.59 µM.
`CC(=O)N[C@H]1[C@H]([C@H](O)[C@H](O)CO)OC(C(=O)O)=C[C@@H]1NC(=N)NN` showed an IC50 [10] of 4.59 µM and an IC50 [11] of 4.59 µM.
`CC(=O)N[C@H]1[C@H]([C@H](O)[C@H](O)CO)OC(C(=O)O)=C[C@@H]1NC(=N)N[N+](=O)[O-]` showed an IC50 [10] of 4.59 µM and an IC50 [11] of 4.59 µM.
`Cc1ccc(C(=O)N[C@H]2C=C(C(=O)O)O[C@@H]([C@@H](O)[C@H](O)CO)[C@H]2NC(=O)C(F)(F)F)cc1` showed an IC50 [5] of 0.03 µM.
Molecule `CCC(CC)O[C@@H]1C=C(P(=O)(O)OC[C@H]2O[C@@H](OC)[C@H](O)[C@@H](O)[C@H]2O)C[C@H](N)[C@H]1NC(C)=O` has a Ki [7] of 0.00074 µM.
In the case of `[N-]=[N+]=N[C@H]1C=C(C(=O)O)O[C@@H]([C@@H](O)[C@H](O)CO)[C@H]1NC(=O)C(F)(F)C(F)(F)C(F)(F)F`, the IC50 [5] is reported as 0.03 µM.
Work on `[N-]=[N+]=N[C@H]1C=C(C(=O)O)O[C@@H]([C@@H](O)[C@H](O)CO)[C@H]1NC(=O)C(F)(F)F` yielded an IC50 [5] of 0.03 µM.
With `CCC(CC)O[C@@H]1C=C(C(=O)O)[C@@H](n2cc(C(O)CC)nn2)[C@H](N)[C@H]1NC(C)=O` (stereo partly specified) the IC50 [16] was 0.1 µM.
With `CC(=O)N[C@H]1[C@H]([C@H](O)[C@H](O)CO)OC(C(=O)O)=C[C@@H]1NC(=N)NO` the IC50 [10] was 4.59 µM and the IC50 [11] was 4.59 µM.
With `CCC(CC)O[C@@H]1C2C([C@@H]2C(=O)O)[C@@H](O)[C@H]1NC(C)=O` (stereo partly specified) the IC50 [6] was 10 µM.
